Literature values, collected in patent publication US9308169B2, “Microspheres for active embolization” (Biosphere Medical, Inc., priority 2000, dated 2016).

Details: effect of the spacer / dangling cationic head of the transfection agent; general statement, no test described

SMILES	transfection efficiency
CCCCCCCC/C=C\CCCCCCCC(=O)OC[C@H](COC(=O)CCC(=O)OCC[N+](C)(C)C)OC(=O)CCCCCCC/C=C\CCCCCCCC [DOSC]	best transfection efficiency
CCCCCCCC/C=C\CCCCCCCC(=O)OC[C@H](COC(=O)CCC[N+](C)(C)C)OC(=O)CCCCCCC/C=C\CCCCCCCC [DOTB]	best transfection efficiency
